# Results as given in ChEMBL document CHEMBL1141367, “Substituted 2-[(4-aminomethyl)phenoxy]-2-methylpropionic acid PPARalpha agonists. 1. Discovery of a novel series of potent HDLc raising agents” (J Med Chem, 2007).
# Key:
# [1] = target: T1, Peroxisome proliferator-activated receptor alpha (Mus musculus, UniProt P23204)
# T1 sequence (P23204 whole entry): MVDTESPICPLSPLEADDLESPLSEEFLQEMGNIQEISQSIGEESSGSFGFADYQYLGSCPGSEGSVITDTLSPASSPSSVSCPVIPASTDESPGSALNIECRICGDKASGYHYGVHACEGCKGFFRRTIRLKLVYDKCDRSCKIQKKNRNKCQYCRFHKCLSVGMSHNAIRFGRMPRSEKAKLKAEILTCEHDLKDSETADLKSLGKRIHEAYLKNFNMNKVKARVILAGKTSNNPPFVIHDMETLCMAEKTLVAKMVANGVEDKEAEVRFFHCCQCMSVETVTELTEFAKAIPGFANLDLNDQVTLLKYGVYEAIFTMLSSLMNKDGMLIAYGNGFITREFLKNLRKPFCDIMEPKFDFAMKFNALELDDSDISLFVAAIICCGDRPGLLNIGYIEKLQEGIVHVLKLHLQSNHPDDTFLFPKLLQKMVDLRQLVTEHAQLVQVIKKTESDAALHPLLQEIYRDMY
# Description: Agonist potency at mouse PPARalpha
# Mus musculus [2] = assay: Increase in HDL cholesterol level in human Apo-A-I transgenic C57BL/6 mouse at 1 mg/kg, po; type: functional
# [3] = Half life in Wistar rat plasma at 2.7 mg/kg, iv; type: ADME, organism-based; design: dose 2.7 mg/kg, route intravenous
# [4] = target: T2, Peroxisome proliferator-activated receptor gamma (Homo sapiens, UniProt P37231); type: functional, cell-based, CV-1
# T2 sequence (P37231 whole entry): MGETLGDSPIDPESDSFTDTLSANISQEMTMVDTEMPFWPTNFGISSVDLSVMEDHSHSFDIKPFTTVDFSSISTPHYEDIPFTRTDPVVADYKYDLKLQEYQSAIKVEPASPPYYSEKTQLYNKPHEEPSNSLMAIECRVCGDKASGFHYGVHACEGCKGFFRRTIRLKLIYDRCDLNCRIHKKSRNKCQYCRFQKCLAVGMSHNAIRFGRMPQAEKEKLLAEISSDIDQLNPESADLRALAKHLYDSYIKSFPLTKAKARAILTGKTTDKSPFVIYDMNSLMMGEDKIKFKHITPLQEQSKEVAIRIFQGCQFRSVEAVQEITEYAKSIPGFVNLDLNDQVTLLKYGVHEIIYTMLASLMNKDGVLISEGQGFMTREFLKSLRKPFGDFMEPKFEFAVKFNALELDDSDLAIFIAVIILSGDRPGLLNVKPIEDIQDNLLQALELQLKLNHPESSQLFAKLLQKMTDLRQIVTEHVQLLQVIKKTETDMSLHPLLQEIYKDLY
# Description: Agonist potency at PPARgamma in CV1 cells by cell based transient transfection assay
# [5] = Volume of distribution in Wistar rat at 2.7 mg/kg, iv; type: ADME, organism-based; design: dose 2.7 mg/kg, route intravenous; conditions: in vivo, read-out: Vdss
# [6] = target: T3, Peroxisome proliferator-activated receptor delta (Mus musculus, UniProt P35396)
# T3 sequence (P35396 whole entry): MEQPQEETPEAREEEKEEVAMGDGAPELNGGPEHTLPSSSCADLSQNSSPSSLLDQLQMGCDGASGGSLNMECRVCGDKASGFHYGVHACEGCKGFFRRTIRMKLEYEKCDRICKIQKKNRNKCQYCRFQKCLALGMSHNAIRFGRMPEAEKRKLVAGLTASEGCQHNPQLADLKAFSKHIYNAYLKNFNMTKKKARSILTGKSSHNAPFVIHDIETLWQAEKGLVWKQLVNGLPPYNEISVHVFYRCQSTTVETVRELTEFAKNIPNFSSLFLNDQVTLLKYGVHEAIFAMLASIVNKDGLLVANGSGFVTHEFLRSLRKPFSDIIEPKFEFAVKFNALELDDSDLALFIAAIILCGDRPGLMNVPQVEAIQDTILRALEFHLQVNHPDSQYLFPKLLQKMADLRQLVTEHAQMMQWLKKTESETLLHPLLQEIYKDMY
# Description: Agonist potency at mouse PPARdelta
# Mus musculus [7] = assay: Decrease in plasma TG level in human Apo-A-I transgenic C57BL/6 mouse at 0.5 mg/kg, po; type: functional; design: scale not given: the % may be the effect or the level left
# [8] = Bioavailability in Wistar rat at 3 mg/kg, po; type: ADME, organism-based; conditions: in vivo
# [9] = Plasma clearance in Wistar rat at 2.7 mg/kg, iv; type: ADME, organism-based; design: dose 2.7 mg/kg, route intravenous
# [10] = Bioavailability in Beagle dog at 3 mg/kg, po; type: ADME, organism-based, Canis lupus familiaris; conditions: in vivo
# [11] = Plasma clearance in Beagle dog at 2 mg/kg, iv; type: ADME, organism-based, Canis lupus familiaris; design: dose 2 mg/kg, route intravenous
# [12] = Half life in Beagle dog plasma at 2 mg/kg, iv; type: ADME, organism-based, Canis lupus familiaris; design: dose 2 mg/kg, route intravenous
# Mus musculus [13] = assay: Decrease in VLDL cholesterol in human Apo-A-I transgenic C57BL/6 mouse at 5 mg/kg, po; type: functional; design: scale not given: the % may be the effect or the level left
# Canis familiaris = assay: Plasma concentration in Beagle dog at 3 mg/kg, po; type: ADME, organism-based, Canis lupus familiaris; design: dose 3 mg/kg, route oral; conditions: in vivo
# [14] = Volume of distribution in Beagle dog at 2 mg/kg, iv; type: ADME, organism-based, Canis lupus familiaris; design: dose 2 mg/kg, route intravenous; conditions: in vivo, read-out: Vdss
# Mus musculus [15] = assay: Decrease in VLDL cholesterol in human Apo-A-I transgenic C57BL/6 mouse at 1 mg/kg, po; type: functional; design: scale not given: the % may be the effect or the level left
# Mus musculus [16] = assay: Decrease in LDL cholesterol level in human Apo-A-I transgenic C57BL/6 mouse at 0.5 mg/kg, po; type: functional; design: scale not given: the % may be the effect or the level left
# Mus musculus [17] = assay: Decrease in LDL cholesterol level in human Apo-A-I transgenic C57BL/6 mouse at 5 mg/kg, po; type: functional; design: scale not given: the % may be the effect or the level left
# [18] = Plasma concentration in Wistar rat at 3 mg/kg, po after 1.5 hrs; type: ADME, organism-based; design: dose 3 mg/kg, route oral
# Mus musculus [19] = assay: Decrease in LDL cholesterol level in human Apo-A-I transgenic C57BL/6 mouse at 1 mg/kg, po; type: functional; design: scale not given: the % may be the effect or the level left
# Mus musculus [20] = assay: Increase in HDL cholesterol level in human Apo-A-I transgenic C57BL/6 mouse at 5 mg/kg, po; type: functional
# [21] = target: T4, Peroxisome proliferator-activated receptor alpha (Homo sapiens) (UniProt Q07869); assay: Agonist potency at PPARalpha expressed in CV1 cells relative to GW-590735; type: functional, cell-based; conditions: CV-1
# T4 sequence (whole entry): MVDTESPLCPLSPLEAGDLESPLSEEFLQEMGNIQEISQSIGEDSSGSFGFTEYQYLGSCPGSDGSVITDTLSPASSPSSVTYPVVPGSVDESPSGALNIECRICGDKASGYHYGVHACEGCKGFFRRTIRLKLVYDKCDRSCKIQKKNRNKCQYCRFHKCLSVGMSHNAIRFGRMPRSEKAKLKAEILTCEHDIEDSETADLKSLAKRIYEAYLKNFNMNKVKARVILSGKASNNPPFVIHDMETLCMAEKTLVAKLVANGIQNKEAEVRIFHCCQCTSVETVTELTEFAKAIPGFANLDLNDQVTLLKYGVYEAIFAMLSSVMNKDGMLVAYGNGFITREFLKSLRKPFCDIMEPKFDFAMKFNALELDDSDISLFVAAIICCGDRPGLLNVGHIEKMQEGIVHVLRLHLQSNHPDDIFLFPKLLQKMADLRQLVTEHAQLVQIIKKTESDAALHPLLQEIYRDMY
# Mus musculus [22] = assay: Decrease in plasma TG level in human Apo-A-I transgenic C57BL/6 mouse at 1 mg/kg, po; type: functional; design: scale not given: the % may be the effect or the level left
# Mus musculus [23] = assay: Decrease in VLDL cholesterol in human Apo-A-I transgenic C57BL/6 mouse at 0.5 mg/kg, po; type: functional; design: scale not given: the % may be the effect or the level left
structure (smiles),measurement,setting,value
Cc1nc(-c2ccc(C(F)(F)F)cc2)sc1C(=O)NCc1ccc(OC(C)(C)C(=O)O)cc1 [GW590735],EC50,[1],15 nM
same,Activity,Mus musculus [2],51%
same,half-life,[3],2.4 h
same,EC50,[4],> 10000 nM
same,Vd,[5],1 L/kg
same,EC50,[6],1000 nM
same,Activity,Mus musculus [7],37%
same,bioavailability,[8],47%
same,clearance,[9],5 mL/min/kg
same,bioavailability,[10],85%
same,clearance,[11],13 mL/min/kg
same,half-life,[12],2.6 h
same,Activity,Mus musculus [13],86%
same,Cp,Canis familiaris,1449 ng/mL
same,Vd,[14],2.8 L/kg
same,Activity,Mus musculus [15],63%
same,Activity,Mus musculus [16],61%
same,Activity,Mus musculus [17],69%
same,concentration at 1.5 h,[18],1460 ng/mL
same,Activity,Mus musculus [19],65%
same,Activity,Mus musculus [20],86%
same,Activity,[21],95%
same,Activity,Mus musculus [22],48%
same,Activity,Mus musculus [23],48%
